Key:
[1] = Ulcerogenicity test (oral administration); type: in vivo; conditions: dosages as high as 100mpk
RPAR Synovitis = test: Reversed Passive Arthus-Reaction (RPAR) Synovitis technique; type: in vivo, male Lewis rats; conditions: dosage of 50 mpk, oral, split dose (half one hour before, half three hours after lesion induction); delta synovial weight about 17 hours after lesion induction; Lewis rat
Experimental: The anti-inflammatory potential of the compounds of the present invention may be determined by the Reversed Passive Arthus-Reaction (RPAR) Synovitis technique as set forth below using male Lewis rats (obtained from Charles River Breeding Laboratories) weighing 200-250 g. The potency of the compounds is determined using indo- methacin as the standard. On the basis of the test results, a dosage range of about 0.1 milligrams per kilogram of body weight per day to about 50 milligrams per kilogram of body weight per day in divided doses at about 4 hour intervals is recommended. For the preferred compounds of the invention tested, it is considered that the compounds are effectively non-toxic at the dose- rates indicated for treatment of inflammatory conditions. […]
The following morning (about 17 hours after lesion induction) the rat is killed and both knee joints are exposed. […] Differences in delta synovial weight between lesion controls and drug- treated rats are evaluated for statistical significance with an analysis of variance. Relative potencies are determined with a linear regression analysis. […]

Row | SMILES | ulcerogenic [1] | percentage inhibition of inflammation (I) (RPAR Synovitis) [%]
1 | CCCc1c(O)n(Cc2ccccc2)c2nc3c(c(=O)n(C)c(=O)n3C)n2c1=O [A, 9-benzyl-1,3-dimethyl-8-hydroxy-7-n-propyl-9H-6-. oxo-pyrimido[2,1-f]purine-2,4-dione] | not to be ulcerogenic | 46
2 | CCCCc1c(O)n(Cc2ccccc2)c2nc3c(c(=O)n(C)c(=O)n3C)n2c1=O [B, 9-benzyl-1,3-dimethyl-8-hydroxy-7-(n-butyl)-9H-6-oxo-pyrimido[2,1-f]purine-2,4-dione] | – | 48
